In ChEMBL document CHEMBL1133499, “Design, synthesis, and in vitro biological activity of indole-based factor Xa inhibitors” (Bioorg Med Chem Lett, 2000):
pKi: −log10 of the molar value.

Legend:
Prothrombin = Prothrombin (Homo sapiens, UniProt P00734); test: In vitro inhibition of human Coagulation factor II.
Coagulation factor X = Coagulation factor X (Homo sapiens, UniProt P00742); test: In vitro inhibition of human Coagulation factor X.
Sequence of Coagulation factor X (P00742 41-179 limits assumed): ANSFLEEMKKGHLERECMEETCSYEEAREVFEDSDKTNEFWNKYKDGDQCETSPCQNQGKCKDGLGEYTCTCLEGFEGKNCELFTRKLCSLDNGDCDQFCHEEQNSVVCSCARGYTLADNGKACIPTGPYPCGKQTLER
Sequence of Coagulation factor X (P00742 235-488 limits assumed): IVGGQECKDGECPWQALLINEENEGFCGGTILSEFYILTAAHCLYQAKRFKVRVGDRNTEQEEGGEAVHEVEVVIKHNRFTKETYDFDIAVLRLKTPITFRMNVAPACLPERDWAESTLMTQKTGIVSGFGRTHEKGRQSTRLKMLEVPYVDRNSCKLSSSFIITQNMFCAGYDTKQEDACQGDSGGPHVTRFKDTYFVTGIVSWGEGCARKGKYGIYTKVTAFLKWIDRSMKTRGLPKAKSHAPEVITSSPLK

N=C(N)c1cccc(CNc2ccc3ccn(-c4cccc(C(=N)N)c4)c3c2)c1
pKi (Prothrombin): 5.40 | pKi (Coagulation factor X): 6.72

N=C(N)c1ccc(-n2ccc3ccc(NCc4ccc5ccc(C(=N)N)cc5c4)cc32)cc1
pKi (Prothrombin): 6.24 | pKi (Coagulation factor X): 7.52

N=C(N)c1ccc(-n2ccc3ccc(NCc4cccc(C(=N)N)c4)cc32)cc1
pKi (Prothrombin): 5.42 | pKi (Coagulation factor X): 6.47

CC(=N)N1CCC(Oc2ccc3cc(C(=O)NC(CC(=O)O)C(=O)O)n(Cc4ccc5ccc(C(=N)N)cc5c4)c3c2)CC1 (configuration not stated)
pKi (Prothrombin): 5.63 | pKi (Coagulation factor X): 7.70

N=C(N)c1ccc(CNc2ccc3ccn(Cc4ccc(C(=N)N)cc4)c3c2)cc1
pKi (Prothrombin): 5.45

N=C(N)c1ccc2ccc(Cn3c4ccccc4c4ccc(OC5CCNCC5)cc43)cc2c1
pKi (Prothrombin): 7.05 | pKi (Coagulation factor X): 8.40

N=C(N)c1cccc(Oc2ccc3c4ccccc4n(Cc4ccc5ccc(C(=N)N)cc5c4)c3c2)c1
pKi (Prothrombin): 6.77 | pKi (Coagulation factor X): 9.05

CN(C)C(=O)COc1ccc2c3ccccc3n(Cc3ccc4ccc(C(=N)N)cc4c3)c2c1
pKi (Prothrombin): 7.30 | pKi (Coagulation factor X): 8.30

N=C(N)c1ccc(Oc2ccc3c4ccccc4n(Cc4ccc5ccc(C(=N)N)cc5c4)c3c2)cc1
pKi (Prothrombin): 6.68

CC(=N)N1CCC(Oc2ccc3cc(C(=O)O)n(Cc4ccc5ccc(C(=N)N)cc5c4)c3c2)CC1
pKi (Prothrombin): 6.28 | pKi (Coagulation factor X): 8.34

COC(=O)c1cc2ccc(OC3CCN(C(C)=N)CC3)cc2n1Cc1ccc2ccc(C(=N)N)cc2c1
pKi (Prothrombin): 6.74 | pKi (Coagulation factor X): 9.70

N=C(N)c1ccc(-n2c3ccccc3c3ccc(OCc4ccc5ccc(C(=N)N)cc5c4)cc32)cc1
pKi (Prothrombin): 5.70 | pKi (Coagulation factor X): 7.22

CC(=N)N1CCC(Oc2ccc3cc(C(=O)N(C)C)n(Cc4ccc5ccc(C(=N)N)cc5c4)c3c2)CC1
pKi (Prothrombin): 5.98 | pKi (Coagulation factor X): 8.46

N=C(N)c1ccc(CNc2ccc3ccn(-c4ccc(C(=N)N)cc4)c3c2)cc1
pKi (Prothrombin): 5.34 | pKi (Coagulation factor X): 6.08

N=C(N)c1ccc(-n2ccc3ccc(NC(=O)c4cccc(C(=N)N)c4)cc32)cc1
pKi (Prothrombin): 5.63 | pKi (Coagulation factor X): 6.80

CC(=N)N1CCC(Oc2ccc3c4ccccc4n(Cc4ccc5ccc(C(=N)N)cc5c4)c3c2)CC1
pKi (Prothrombin): 7.40 | pKi (Coagulation factor X): 8.80

CCOC(=O)c1cc2ccc(OC3CCN(C(C)=N)CC3)cc2n1Cc1ccc2ccc(C(=N)N)cc2c1
pKi (Prothrombin): 6.44 | pKi (Coagulation factor X): 9.22
